Measured values published in US20240240224A1, “FLUORESCENT D-TYPE AMINO ACID METABOLISM MARKER-BASED METHOD FOR DETECTING ANTIBACTERIAL DRUG SENSITIVITY TEST” (priority 2020, published 2024).
In brackets after ≈: the same amount, converted by molar mass.

Columns and labels:
E. coli Ec13 = assay: BMD susceptibility test; format: cell-based, Escherichia coli; settings: unit assumed
[1] = system: Enterococcus faecium EFM26; assay: FaAST with DAA-Tetra probe; format: cell-based; settings: unit assumed
[2] = system: Acinetobacter baumannii ABA19; assay: FaAST with DAA-Tetra probe; format: cell-based; settings: unit assumed
[3] = system: Pseudomonas aeruginosa PAE2; assay: FaAST with DAA-Tetra probe; format: cell-based; settings: unit assumed
[4] = system: alveolar lavage fluid sample 0203, K. pneumoniae; assay: FaAST (FDAA) susceptibility test of patient alveolar lavage fluid; format: cell-based, Klebsiella pneumoniae; settings: unit assumed
Protocol: (§1) With reference to the flow chart of the rapid detection method of antimicrobial susceptibility test based on FDAA metabolic markers shown in FIG. 3, FDAA is used for the detection of antimicrobial susceptibility test of alveolar lavage fluid. The specific experimental steps are as follows: • 1. Mix bronchoalveolar lavage fluid (BALF, 10 ml) of patients with hospital acquired pneumonia with cation regulated broth medium (CAMHB, 10 ml) of twice the concentration to prepare the bacterial fluid to be tested. • 2. Add 45 μl antibiotic solutions of different concentrations to the 96-well plate separately (see Table 1 for antibiotic concentration gradient settings). • 3. Add 50 μl of the bacterial solution prepared in step 1 to the 96-well plate and mix well. • 4. Add 5 μl of 10 mM Cy5-DAA probe (final concentration 0.15 mM, see FIG. 1 for its structure) into each well, mix well, and then cultivate in dark for 2 hours. • 5. Add 200 μl PBS solution for dilution, and then use flow cytometry to detect the fluorescence intensity of each sample.
(§2) The results of antimicrobial susceptibility test of alveolar lavage fluid of seven patients using FDAA and BMD methods are shown in the following table. The drug-resistant bacteria are shown in bold.

[5] = system: alveolar lavage fluid sample 0226, K. pneumoniae; assay: as above; format: cell-based, Klebsiella pneumoniae; settings: unit assumed
Protocol: as §1, §2

[6] = system: Enterococcus faecium EFM26; assay: VITEK drug sensitivity test; format: cell-based; settings: unit assumed
P. aeruginosa Pa3 = assay: BMD susceptibility test; format: cell-based, Pseudomonas aeruginosa; settings: unit assumed
E. faecalis ATCC29212 = assay: BMD susceptibility test; format: cell-based, Enterococcus faecalis; settings: unit assumed
E. coli Ec11 = assay: BMD susceptibility test; format: cell-based, Escherichia coli; settings: unit assumed
A. baumannii Ab16 = assay: BMD susceptibility test; format: cell-based, Acinetobacter baumannii; settings: unit assumed
S. aureus Sa22 = assay: BMD susceptibility test; format: cell-based, Staphylococcus aureus; settings: unit assumed
[7] = system: Pseudomonas aeruginosa PAE853; assay: VITEK drug sensitivity test; format: cell-based; settings: unit assumed
E.coli 1146 = assay: FDAA metabolic labeling susceptibility test (Cy5-DAA probe, flow cytometry); format: cell-based, Escherichia coli; settings: Escherichia coli; E.coli 1146; Cy5-DAA probe, 2 hours; read-out: MIC, FDAA
E.coli 1113 = assay: as above; format: cell-based, Escherichia coli; settings: Escherichia coli; E.coli 1113; Cy5-DAA probe, 2 hours; read-out: MIC, FDAA
A. baumannii Ab19 = assay: BMD susceptibility test; format: cell-based, Acinetobacter baumannii; settings: unit assumed
Pa ATCC 27853 = assay: BMD susceptibility test; format: cell-based, Pseudomonas aeruginosa; settings: unit assumed

Question: For `C[C@H]1COc2c(N3CCN(C)CC3)c(F)cc3c(=O)c(C(=O)O)cn1c23` [Levofloxacin, levofloxacin], which BMD (MIC) (E. coli Ec13) is on record?
Answer: 4 µg/mL

Question: What about the MIC, FaAST [1] of the same compound?
Answer: 64 µg/mL (≈ 177 µM)

Question: What about the MIC, FaAST [2] of the same compound?
Answer: 0.5 µg/mL (≈ 1.38 µM)

Question: And the MIC, FaAST [3]?
Answer: 0.5 µg/mL (≈ 1.38 µM)

Question: And the FaAST (MIC) [4]?
Answer: 0.25 µg/mL

Question: And the FaAST (MIC) [5]?
Answer: 0.25 µg/mL

Question: And the MIC, VITEK [6]?
Answer: ≥ 256 µg/mL

Question: And the BMD (MIC) (P. aeruginosa Pa3)?
Answer: 0.5 µg/mL

Question: What about the BMD (MIC) (E. faecalis ATCC29212) of the same compound?
Answer: 1 µg/mL

Question: What about the BMD (MIC) (E. coli Ec11) of the same compound?
Answer: ≤ 0.25 µg/mL

Question: And the BMD (MIC) (A. baumannii Ab16)?
Answer: 16 µg/mL

Question: And the BMD (MIC) (S. aureus Sa22)?
Answer: 32 µg/mL

Question: And the MIC, VITEK [7]?
Answer: 0.5 µg/mL (≈ 1.38 µM)

Question: And the MIC (E.coli 1146)?
Answer: ≥ 16 µg/mL

Question: And the MIC (E.coli 1113)?
Answer: ≥ 16 µg/mL

Question: And the BMD (MIC) (A. baumannii Ab19)?
Answer: ≤ 0.25 µg/mL

Question: What about the BMD (MIC) (Pa ATCC 27853) of the same compound?
Answer: 0.5 µg/mL
